According to ChEMBL document CHEMBL1149609, “Synthesis and evaluation of human T cell stimulating activity of an alpha-sulfatide analogue” (Bioorg Med Chem, 2007):
The source made the active and inactive calls. No cut-off for these calls is given here.

Tests used:
Assay type in all cases: functional
Homo sapiens [1] = species on record: Homo sapiens; assay: Stimulation of CD1d-restricted iNKTcell clone BGA01 assessed as gammaIFN release after 48 hrs by ELISA
Homo sapiens [2] = species on record: Homo sapiens; assay: Stimulation of sulfatide-specific CD1a-restricted Tcell clone K34B9.1 assessed as gammaIFN release after 48 hrs by ELISA
Homo sapiens [3] = species on record: Homo sapiens; assay: Stimulation of CD1d-restricted iNKTcell clone BGA89 assessed as IL4 release after 48 hrs by ELISA
Homo sapiens [4] = species on record: Homo sapiens; assay: Stimulation of CD1d-restricted iNKTcell clone BGA89 assessed as gammaIFN release after 48 hrs by ELISA
Homo sapiens [5] = species on record: Homo sapiens; assay: Stimulation of sulfatide-specific CD1a-restricted Tcell clone K34B9.1 assessed as IL4 release after 48 hrs by ELISA
Homo sapiens [6] = species on record: Homo sapiens; assay: Stimulation of CD1d-restricted iNKTcell clone BGA01 assessed as IL4 release after 48 hrs by ELISA

Structure (SMILES): CCCCCCCCCCCCC/C=C/[C@@H](O)[C@H](CO[C@H]1O[C@H](CO)[C@H](O)[C@H](OS(=O)(=O)O)[C@H]1O)NC(=O)CCCCCCCCCCCCCCCCCCCCC
- Activity (Homo sapiens [1]): Active
- Activity (Homo sapiens [2]): inactive
- Activity (Homo sapiens [3]): Active
- Activity (Homo sapiens [4]): Active
- Activity (Homo sapiens [5]): inactive
- Activity (Homo sapiens [6]): Active
